Measurements from EP0433084A2, “Use of aromatese inhibitors for the reversal of female sexual phenotype in poultry” (MERCK & CO. INC., priority 1989, dated 1991).
Structures can show the parent of a compound that is named as a salt. Where two headings read alike, the source gives them in different places.

Assays:
[1] = tested on: autosexing strains of chickens
Description: (§1) To more easily monitor changes in development as a function of age according to genetic sex two different autosexing strains of chickens were treated as above. All chickens were allowed to reach sexual maturity. […] One of the three was killed after 24 weeks and the remaining two (tag numbers 1977 and 1981) were killed after 31 weeks. Prior to killing blood was taken from each animal and used to determine sex steroid levels. At the time of killing the gonads were removed and fixed for histology in Bouin's fixative.
The right gonad and oviduct of the normal female begins to regress during embryogenesis and at maturity females have a single ovary and oviduct. The remaining left ovary consists of a series of follicles staged to mature at daily intervals.

turkey embryos = tested on: turkey embryos
Description: A light source was used to orient the eggs and the injection is made under the air sac into the egg white surrounding the developing embryo. The hole was sealed with Scotch tape and the eggs were placed in a humidified, rocking incubator. The birds were allowed to hatch and the phenotypic and genotypic sex determined.

[2] = tested on: Abor Acre x Abor Acre Hybrid Broiler Chickens; experiment: in vivo
Description: (§2) The inhibitor was dissolved in saline at concentrations ranging form 1 mg/ml to 100 mg/ml and the injection volume ranged from 20 µl to 100 µl producing doses of 20 µg to 10 mg. Injections were made with a 23 G x 1 inch needle. A light source was used to orient the eggs and the injection is made under the air sac into the egg white surrounding the developing embryo. The hole was sealed with Scotch tape and the eggs were placed in a humidified, rocking incubator. At day fourteen of incubation, the embryos were removed form their shells and dissected to observe development of the gonads.
(§3) The procedures are the same as described above.

in vivo = settings: chicken, embryos in ovo, %Hatched
Description: as §2, §3

[3] = tested on: hybrids used in Example 3; settings: for Estradiol / Testosterone: serum
Description: as §1
Estradiol and testosterone levels were determined in serum samples using commercial RIA assay kits which are well known in the art.

[4] = tested on: Line 67 White Leghorn embryos; settings: in vivo
Description: as §2

[5] = tested on: Line 139 White Leghorn Chickens; settings: for Female / Male / Und. (Undetermined): gonadal sex type at day 14, number of embryos; for Survived day 14: number of embryos
Description: as §2

[6] = tested on: gonads from control males and treated females; settings: in vivo
Description: Histological examination of gonads from control males and treated females at 31 weeks of age was carried out on tissue fixed in Bouin's solution prior to embedding in paraffin. Sections were stained with hematoxylin and eosin.

female Mullerian ducts = settings: chick embryo; Huston et al., Gen. Comp. Endocrinol. 57: 88-102 (1985); cited from earlier work
[7] = tested on: F₁ Hybrids of Rhode Island Males Crossed With Plymouth Barred Rock Females; experiment: Gonadal sex type of 14 day embryos after in ovo injection; type: in vivo, chicken
Description: Fertilized chicken embryos were injected on day 5 of incubation with the aromatase inhibitor 1,4,6-androstatriene-3,17-dione. The inhibitor was dissolved in 1,2-propane-diol at a concentration of 20 mg/ml and the injection volume was 100 µl producing a dose of 2 mg.

[8] = animal 1977, treated genetic female, phenotypic male, 31 weeks
[9] = animal 1978, treated genetic male
[10] = animal 1981, treated genetic female, phenotypic male, 31 weeks
[11] = Experiment 1, 20 µg injected on day 5
[12] = Experiment 1, 100 µg injected on day 5
[13] = Experiment 1, 2 mg injected on day 5
[14] = Experiment 1, 10 mg injected on day 5, none survived
[15] = Experiment 2, 100 µg injected on day 4
[16] = Experiment 2, 1 mg injected on day 4
[17] = Experiment 3, 100 µg injected on day 5
[18] = Experiment 3, 1 mg injected on day 5
[19] = gonadal sex type at day 14, number of embryos, 2.0 mg injected on day 5

N#Cc1ccc(C2CCCc3cncn32)cc1 (racemic) [± 5-(p-cyanophenyl)-5,6,7,8-tetrahydroimidazo [1,5-α] pyridine hydrochloride]
abdominal fat of treated females ([1]; 31 week old, abdominal cavities opened, compared with control females): absence of abdominal fat
treated females developed a male phenotype ([1]; Sex-Sal autosexing strain, injected day 4 or 5, at sexual maturity): one of two
appearance and behavior of treated females ([1]; by seven months of age, injected day 4 or 5): obviously masculine in appearance and behavior
adult females developed male phenotypes ([1]; hybrids used in Example 3, injected day 4 or 5, at sexual maturity): three of four
presence of testes in treated females ([1]; two gonads without oviducts, at necropsy): three of the four
phenotype of unhatched embryos (turkey embryos; 1 mg, 2 pipped embryos and 2 embryos that died after 25 and 27 days of incubation): All embryos were phenotypic male
vent sexed as male (turkey embryos; 1 mg, of 4 hatched birds, 2 feather-sexed as female and 2 as male): 4
birds hatched (turkey embryos; eggs inoculated with 1 mg, day 4 or 5 of incubation): Four
Female ([2]; 10 µg injected on day 5): 36
Male ([2]; 10 µg injected on day 5): 60
Female ([2]; 50 µg injected on day 0): 2
Male ([2]; 50 µg injected on day 0): 45
Female ([2]; 50 µg injected on day 5): 0
Male ([2]; 50 µg injected on day 5): 88
Female ([2]; 100 µg injected on day 5): 0
Male ([2]; 100 µg injected on day 5): 91
survival (in vivo; 0.01 mg, 10 µg injected on day 5): 72%
survival (in vivo; 0.05 mg, 50 µg injected on day 0): 40%
survival (in vivo; 0.05 mg, 50 µg injected on day 5): 67%
survival (in vivo; 0.1 mg, 100 µg injected on day 5): 69%
serum hormone profiles of treated females ([3]; 31 week old): resembling adult males
Estradiol ([3]; animal 1976, treated genetic female that did not respond, phenotypically female): 57 ng/mL
Estradiol [3, 8]: 12 ng/mL
Testosterone [3, 8]: 224 ng/mL
Estradiol [3, 9]: 5 ng/mL
Testosterone [3, 9]: 412 ng/mL
Estradiol [3, 10]: 2 ng/mL
Testosterone [3, 10]: 109 ng/mL
vent sexed as males [4]: all birds
Female [5, 11]: 2
Male [5, 11]: 0
Und. (Undetermined) [5, 11]: 0
Female [5, 12]: 0
Male [5, 12]: 3
Und. (Undetermined) [5, 12]: 0
Female [5, 13]: 0
Male [5, 13]: 2
Und. (Undetermined) [5, 13]: 0
Female [5, 14]: 0
Male [5, 14]: 0
Und. (Undetermined) [5, 14]: 0
Female [5, 15]: 0
Male [5, 15]: 3
Und. (Undetermined) [5, 15]: 1
Female [5, 16]: 0
Male [5, 16]: 4
Und. (Undetermined) [5, 16]: 0
Female [5, 17]: 0
Male [5, 17]: 4
Und. (Undetermined) [5, 17]: 1
Female [5, 18]: 0
Male [5, 18]: 5
Und. (Undetermined) [5, 18]: 0
Survived day 14 ([5]; Experiment 1, 20 µg injected on day 5, 4 injected): 2
Survived day 14 ([5]; Experiment 1, 100 µg injected on day 5, 4 injected): 3
Survived day 14 ([5]; Experiment 1, 2 mg injected on day 5, 4 injected): 2
Survived day 14 ([5]; Experiment 1, 10 mg injected on day 5, 4 injected): 0
Survived day 14 ([5]; Experiment 2, 100 µg injected on day 4, 5 injected): 4
Survived day 14 ([5]; Experiment 2, 1 mg injected on day 4, 6 injected): 4
Survived day 14 ([5]; Experiment 3, 100 µg injected on day 5, 7 injected): 5
Survived day 14 ([5]; Experiment 3, 1 mg injected on day 5, 7 injected): 5
seminiferous tubules in gonads of treated females [6]: present in both the left and right gonads

CC/C(=C(\c1ccccc1)c1ccc(OCCN(C)C)cc1)c1ccccc1 [tamoxifen]
effect on the female Mullerian ducts (female Mullerian ducts): little effect

C[C@]12C=CC(=O)C=C1C=C[C@@H]1[C@@H]2CC[C@]2(C)C(=O)CC[C@@H]12 [1,4,6-androstatriene-3,17-dione]
birds being males ([7]; 2 mg injected on day 5, gonads at day 14): 100%
Female [7, 19]: 0
Male [7, 19]: 5
Survived day 14 ([7]; number of embryos, 2.0 mg in 1,2-propane-diol injected on day 5): 5

O=C(c1ccc(OCCN2CCCC2)cc1)c1c(-c2ccc(O)cc2)sc2cc(O)ccc12 [LY117018]
effect on the female Mullerian ducts (female Mullerian ducts): little effect

C#C[C@]1(O)CC[C@H]2[C@@H]3CCC4=CC(=O)CC[C@@H]4[C@H]3CC[C@@]21C [norethindrone]
effect on the female Mullerian ducts (female Mullerian ducts): partial regression of the upper end of the left Mullerian duct as well as complete loss of the lower ends of both ducts
